Data as given in patent US11725011B2, “Bicyclic urea kinase inhibitors and uses thereof” (The Broad Institute, Inc., priority 2016, dated 2023).

Legend:
Assay in all cases: KINOMEscan
Format in all cases: binding
Settings in all cases: 1 uM
MARK3 = MARK3 (Homo sapiens (Human), UniProt P27448)
PFTK1 = PFTK1 (Homo sapiens (Human), UniProt O94921)
FRK = FRK (Homo sapiens (Human), UniProt P42685)
IRAK3 = IRAK3 (Homo sapiens (Human), UniProt Q9Y616)
ULK1 = ULK1 (Homo sapiens (Human), UniProt O75385)
ULK1, sequence (O75385 whole entry): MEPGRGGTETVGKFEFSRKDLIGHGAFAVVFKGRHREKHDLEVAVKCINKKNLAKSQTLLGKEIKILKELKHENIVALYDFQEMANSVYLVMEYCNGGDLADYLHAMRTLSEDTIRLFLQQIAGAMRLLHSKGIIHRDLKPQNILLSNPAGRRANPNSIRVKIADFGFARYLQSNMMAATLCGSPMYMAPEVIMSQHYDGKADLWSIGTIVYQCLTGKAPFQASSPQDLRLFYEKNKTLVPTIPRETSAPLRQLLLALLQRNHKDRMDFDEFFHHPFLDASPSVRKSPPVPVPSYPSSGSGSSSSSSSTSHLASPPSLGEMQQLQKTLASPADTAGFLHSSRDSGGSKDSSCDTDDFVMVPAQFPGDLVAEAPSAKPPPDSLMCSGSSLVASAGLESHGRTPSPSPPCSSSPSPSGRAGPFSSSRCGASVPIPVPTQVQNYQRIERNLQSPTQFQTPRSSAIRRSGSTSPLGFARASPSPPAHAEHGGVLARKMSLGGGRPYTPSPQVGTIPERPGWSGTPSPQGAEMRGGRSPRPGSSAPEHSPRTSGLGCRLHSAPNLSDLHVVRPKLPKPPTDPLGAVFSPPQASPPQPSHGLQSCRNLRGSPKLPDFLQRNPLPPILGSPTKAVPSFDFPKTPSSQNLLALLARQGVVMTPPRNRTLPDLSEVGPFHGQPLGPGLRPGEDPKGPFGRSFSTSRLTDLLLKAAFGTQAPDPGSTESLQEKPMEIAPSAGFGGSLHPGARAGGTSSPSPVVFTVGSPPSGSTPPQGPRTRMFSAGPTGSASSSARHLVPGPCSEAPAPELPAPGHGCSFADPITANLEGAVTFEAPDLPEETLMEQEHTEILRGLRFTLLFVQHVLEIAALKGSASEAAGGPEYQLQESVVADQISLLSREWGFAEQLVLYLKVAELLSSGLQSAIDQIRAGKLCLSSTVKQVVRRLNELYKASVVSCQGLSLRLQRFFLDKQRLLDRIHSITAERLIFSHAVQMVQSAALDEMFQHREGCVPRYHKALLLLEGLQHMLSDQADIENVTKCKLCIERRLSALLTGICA

IKK-alpha = IKK-alpha (Homo sapiens (Human), UniProt O15111)
PIM2 = PIM2 (Homo sapiens (Human), UniProt Q9P1W9)
PIM2, sequence (Q9P1W9 whole entry): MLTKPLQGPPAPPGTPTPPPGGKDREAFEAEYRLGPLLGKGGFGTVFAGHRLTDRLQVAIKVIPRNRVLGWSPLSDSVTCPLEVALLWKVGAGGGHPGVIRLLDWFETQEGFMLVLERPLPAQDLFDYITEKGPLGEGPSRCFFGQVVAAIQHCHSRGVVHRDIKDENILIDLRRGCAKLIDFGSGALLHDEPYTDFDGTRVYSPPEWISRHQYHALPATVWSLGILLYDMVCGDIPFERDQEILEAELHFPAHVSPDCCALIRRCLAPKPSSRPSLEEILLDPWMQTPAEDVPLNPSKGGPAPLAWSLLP

PRKCH = PRKCH (Homo sapiens (Human), UniProt P24723)
PRKCH, sequence (P24723 whole entry): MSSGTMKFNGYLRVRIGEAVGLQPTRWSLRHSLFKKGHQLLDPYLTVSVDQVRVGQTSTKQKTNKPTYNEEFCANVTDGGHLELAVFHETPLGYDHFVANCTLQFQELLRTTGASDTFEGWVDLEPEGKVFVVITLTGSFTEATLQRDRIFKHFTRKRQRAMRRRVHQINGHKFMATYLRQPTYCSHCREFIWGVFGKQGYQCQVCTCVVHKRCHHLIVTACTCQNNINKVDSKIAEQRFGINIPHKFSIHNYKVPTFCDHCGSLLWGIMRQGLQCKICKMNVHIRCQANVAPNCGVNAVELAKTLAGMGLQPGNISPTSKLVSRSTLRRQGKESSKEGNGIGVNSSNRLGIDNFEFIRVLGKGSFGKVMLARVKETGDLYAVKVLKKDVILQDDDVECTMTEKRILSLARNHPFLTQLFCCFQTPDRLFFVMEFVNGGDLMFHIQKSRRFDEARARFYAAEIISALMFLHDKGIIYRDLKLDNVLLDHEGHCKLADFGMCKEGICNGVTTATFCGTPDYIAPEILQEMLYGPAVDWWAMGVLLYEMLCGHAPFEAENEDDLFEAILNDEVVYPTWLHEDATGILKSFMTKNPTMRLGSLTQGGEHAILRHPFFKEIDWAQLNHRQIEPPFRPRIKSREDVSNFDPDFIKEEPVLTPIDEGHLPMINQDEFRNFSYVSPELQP

FGFR2 = FGFR2 (Homo sapiens (Human), UniProt P21802)
FGFR2, sequence (P21802 22-821): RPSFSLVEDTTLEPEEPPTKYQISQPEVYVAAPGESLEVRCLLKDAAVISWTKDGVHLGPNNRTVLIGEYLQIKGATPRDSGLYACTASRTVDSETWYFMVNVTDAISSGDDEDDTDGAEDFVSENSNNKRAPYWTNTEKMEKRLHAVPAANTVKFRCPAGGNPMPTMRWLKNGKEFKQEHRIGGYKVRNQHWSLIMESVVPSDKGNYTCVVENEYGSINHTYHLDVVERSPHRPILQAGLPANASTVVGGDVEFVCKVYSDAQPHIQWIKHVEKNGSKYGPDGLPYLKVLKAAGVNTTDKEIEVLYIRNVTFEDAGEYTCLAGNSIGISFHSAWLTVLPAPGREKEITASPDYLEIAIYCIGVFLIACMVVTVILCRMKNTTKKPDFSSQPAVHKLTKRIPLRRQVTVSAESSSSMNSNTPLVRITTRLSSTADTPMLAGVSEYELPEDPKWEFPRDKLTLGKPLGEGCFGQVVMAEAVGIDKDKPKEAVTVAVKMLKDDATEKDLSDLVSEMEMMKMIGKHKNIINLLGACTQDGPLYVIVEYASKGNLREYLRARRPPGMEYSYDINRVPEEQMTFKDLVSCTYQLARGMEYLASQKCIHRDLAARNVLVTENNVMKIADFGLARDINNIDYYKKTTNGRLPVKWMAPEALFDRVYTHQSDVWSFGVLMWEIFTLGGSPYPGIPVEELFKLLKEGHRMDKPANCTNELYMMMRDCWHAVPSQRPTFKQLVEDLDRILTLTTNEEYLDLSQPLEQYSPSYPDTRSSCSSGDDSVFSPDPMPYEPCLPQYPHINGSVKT

PRKX = PRKX (Homo sapiens (Human), UniProt P51817)
PRKX, sequence (P51817 whole entry): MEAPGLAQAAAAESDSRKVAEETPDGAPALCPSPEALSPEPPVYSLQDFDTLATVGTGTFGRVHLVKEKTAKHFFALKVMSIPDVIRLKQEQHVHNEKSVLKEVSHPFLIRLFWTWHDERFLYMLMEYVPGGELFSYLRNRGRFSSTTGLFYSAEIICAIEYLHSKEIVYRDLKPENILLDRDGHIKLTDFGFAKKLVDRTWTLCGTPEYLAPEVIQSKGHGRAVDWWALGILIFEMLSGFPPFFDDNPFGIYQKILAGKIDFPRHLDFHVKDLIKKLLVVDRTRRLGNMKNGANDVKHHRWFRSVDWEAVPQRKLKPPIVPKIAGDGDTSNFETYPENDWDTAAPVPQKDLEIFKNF

FLT3 (D835H) = FLT3 (D835H) (Homo sapiens (Human), UniProt P36888, D835H)
CHEK1 = CHEK1 (Homo sapiens (Human), UniProt O14757)
CHEK1, sequence (O14757 whole entry): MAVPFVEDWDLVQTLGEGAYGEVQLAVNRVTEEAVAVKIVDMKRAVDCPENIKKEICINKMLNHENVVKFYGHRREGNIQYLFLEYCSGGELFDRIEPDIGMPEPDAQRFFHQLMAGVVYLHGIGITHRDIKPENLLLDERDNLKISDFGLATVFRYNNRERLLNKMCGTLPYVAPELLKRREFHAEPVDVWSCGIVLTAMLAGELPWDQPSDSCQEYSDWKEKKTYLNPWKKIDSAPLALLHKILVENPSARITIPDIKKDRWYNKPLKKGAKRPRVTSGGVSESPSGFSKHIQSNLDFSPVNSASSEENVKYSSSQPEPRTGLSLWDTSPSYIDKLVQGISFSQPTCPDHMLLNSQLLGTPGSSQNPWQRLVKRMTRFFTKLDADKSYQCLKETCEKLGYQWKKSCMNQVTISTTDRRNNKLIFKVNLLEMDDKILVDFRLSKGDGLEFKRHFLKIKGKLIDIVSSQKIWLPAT

MARK3, sequence (P27448 whole entry): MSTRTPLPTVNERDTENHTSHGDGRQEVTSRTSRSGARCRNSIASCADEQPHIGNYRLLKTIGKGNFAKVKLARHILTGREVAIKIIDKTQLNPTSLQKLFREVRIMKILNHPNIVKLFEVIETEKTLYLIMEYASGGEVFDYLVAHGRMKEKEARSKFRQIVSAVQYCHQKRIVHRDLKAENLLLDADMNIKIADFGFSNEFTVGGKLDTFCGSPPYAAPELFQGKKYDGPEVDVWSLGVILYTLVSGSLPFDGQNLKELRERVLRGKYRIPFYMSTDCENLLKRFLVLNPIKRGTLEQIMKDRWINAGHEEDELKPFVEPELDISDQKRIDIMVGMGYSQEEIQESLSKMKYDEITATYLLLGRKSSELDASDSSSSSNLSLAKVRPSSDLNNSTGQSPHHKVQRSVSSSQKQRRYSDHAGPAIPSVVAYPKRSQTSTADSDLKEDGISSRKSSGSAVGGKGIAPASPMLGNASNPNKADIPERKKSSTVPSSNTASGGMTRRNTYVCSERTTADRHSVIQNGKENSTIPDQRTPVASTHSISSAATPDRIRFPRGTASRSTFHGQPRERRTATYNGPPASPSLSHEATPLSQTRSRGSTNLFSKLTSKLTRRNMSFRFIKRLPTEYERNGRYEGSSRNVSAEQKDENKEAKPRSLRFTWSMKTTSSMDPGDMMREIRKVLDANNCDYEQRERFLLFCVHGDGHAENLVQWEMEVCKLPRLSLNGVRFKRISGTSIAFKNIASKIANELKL
FRK, sequence (P42685 whole entry): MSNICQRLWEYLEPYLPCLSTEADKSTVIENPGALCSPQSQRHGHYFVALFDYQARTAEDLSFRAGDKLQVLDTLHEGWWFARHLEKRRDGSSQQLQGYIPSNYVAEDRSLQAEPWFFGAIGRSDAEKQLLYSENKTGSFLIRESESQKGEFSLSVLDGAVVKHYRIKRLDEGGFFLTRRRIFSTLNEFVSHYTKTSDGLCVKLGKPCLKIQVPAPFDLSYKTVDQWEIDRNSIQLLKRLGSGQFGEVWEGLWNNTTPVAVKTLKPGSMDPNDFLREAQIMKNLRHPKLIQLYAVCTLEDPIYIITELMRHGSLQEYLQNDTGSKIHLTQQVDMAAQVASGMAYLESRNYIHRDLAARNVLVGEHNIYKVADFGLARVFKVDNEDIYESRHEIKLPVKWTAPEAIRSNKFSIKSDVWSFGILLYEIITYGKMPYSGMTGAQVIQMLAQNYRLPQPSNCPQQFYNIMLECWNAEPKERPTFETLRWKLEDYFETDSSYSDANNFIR

COc1ccc(N2C(=O)N(c3c(C)cccc3C)Cc3cnc(Nc4ccc(N5CCN(C)CC5)cc4)nc32)c(OC)c1 [HG-11-136-01]
KINOMEscan MARK3 (MARK3): 1.6 | KINOMEscan PFTK1 (PFTK1): 100 | KINOMEscan FRK (FRK): 0.05 | KINOMEscan IRAK3 (IRAK3): 38 | KINOMEscan ULK1 (ULK1): 3.2 | KINOMEscan IKK-alpha (IKK-alpha): 99 | KINOMEscan PIM2 (PIM2): 100 | KINOMEscan PRKCH (PRKCH): 100 | KINOMEscan FGFR2 (FGFR2): 0.8 | KINOMEscan PRKX (PRKX): 100 | KINOMEscan FLT3 (D835H) (FLT3 (D835H)): 16 | KINOMEscan CHEK1 (CHEK1): 82
